Test [1] concerns rat spinal canal stenosis (cauda equina compression-induced walking dysfunction) model. Nature of the test: Rat spinal canal stenosis model, walking ability test. The class given is in vivo. The following applies: treadmill; for walk distance compared with the solvent repetitive administration group: 14th day of repetitive administration; for Inventive compound repetitive administration group (average distance (m)): 14th day of repetitive administration started 4th day after operation, 7 or 8 animals. An excerpt: A rat spinal canal stenosis (cauda equina compression-induced walking dysfunction) model can be prepared according to the method of Nakai, K et al. (Anesth. Analg., 94, pp. 1537-1541 (2002)) or the like. Namely, a rat is anesthetized with pentobarbital sodium, shaved on the back, and fixed in the abdominal position. After disinfection on the back with Isodine Surgical Scrub (Meiji Seika), a lumbar part is cut open along the median to expose the spine. Then, a silicone rubber of 1×4×1.5 mm (height×length×width) is inserted into the fifth lumbar vertebral canal from a small hole on the vertebral arch. Benzylpenicillin potassium (Crystalline Penicillin G Potassium Meiji, Meiji Seika) is dropped on the opened lesion and intramuscularly injected in the femoral region for the purpose of evasion of infectious diseases. The muscles and skin of the opened lesion are sutured with a ligature, and Isodine Surgical Scrub is applied to the sutured portion. Animals of sham group are also prepared according to the aforementioned method, provided that silicone rubber is not inserted.
In walking ability test, evaluation is performed by using a treadmill (Muromachi Kikai). A rat is placed on a traveling belt, adapted to the environment more than 3 minutes under a grid-electrified condition (0.04 to 4 mA), and then made to start walking from a velocity of 10 m/min, and then the velocity is increased by 5 m/min every 3 minutes. The walk is stopped, and electrical stimulation (0.04 to 4 mA) is applied to the rat which has moved to the grid for electrical stimulation provided before the traveling belt. Distance which the animal walked after the animal started the walk until the animal became unable to walk, i.e., the animal came not to walk even if a stimulation (sound, contact, electricity) was added to the animal to urge it to walk, was calculated from the walking time. Before the operation, the walking function test is carried out 3 times to perform training of walk. From the 4th day after the operation, repetitive administration of each compound of the present invention as a test compound was started, and the walking ability test was performed on the 14th day of the administration for the measurement.
Each group consisted of 7 or 8 animals, and the average distance before the administration was the average for the animals of both groups. […] It was confirmed that the compounds of the present invention were useful as medicaments for therapeutic treatment of a disease accompanied by walking dysfunction such as spinal canal stenosis.

In test [2] the test system is rabbit normal intraocular pressure. Nature of the test: Intraocular pressure reducing action. It is filed as in vivo, Japanese white rabbit. The settings on record: Oryctolagus cuniculus, topical, read-out: intraocular pressure reducing degree; for inhibition in vivo at 3000 µM: 3 mM aqueous solution, 50 μl to the left eye, max IOP reduction (2, 4, 6 hours) / value immediately before administration; for inhibition in vivo at 1000 µM: test compound of 1 mM, same test as Test Example 3. The procedure, abridged: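 Japanese white rabbits (~2 kg) under topical anaesthesia received 50 μl of a 3 mM aqueous test solution in the left eye, right eye untreated. IOP read by tonometer before and at 2, 4, 6 h; maximal left–right difference divided by pre-dose IOP ×100 gives % reduction.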

The next test relates to TNF-α production. Nature of the test: Inhibitory effect on TNF-α production in mice (LPS). It is filed as in vivo, BALB/c mice. The following applies: Mus musculus, 1.5 h; oral administration of 30 mg/kg, LPS 5 μg i.p. 60 minutes later, plasma after 90 minutes; read-out: TNF-α production suppressing action.
In test [3] the test system is thoracic aorta ring sample. Nature of the test: Rat vascular smooth muscle relaxing action (phenylephrin contraction). The following applies: cumulative phenylephrin, contraction relative to 60 mM KCl. How it is done: Examination of rat vascular smooth muscle relaxing action was performed as follows. A rat was anesthetized with pentobarbital sodium, and bled from the carotid artery, and then the thoracic aorta was extracted. The extracted vessel was immersed in ice-cooled Krebs-Henseleit nutrient solution bubbled with a mixed gas of 95% O2+5% CO2 to wash out the blood in the internal cavity of the vessel with the nutrient solution, and then stored overnight in the nutrient solution at 4° C. Then, connective tissues and lipids were removed from the vessel under a stereoscopic microscope, and a ring sample having a width of about 3 mm was prepared. The ring sample was hung in an organ bath containing the nutrient solution of 37° C., and a resting tension of 2.5 g was loaded on the sample. After the ring sample was stabilized for about 90 minutes, it was confirmed that a contraction reaction could be obtained by addition of 60 mM KCl alone. A test drug was added to the nutrient solution at an appropriate final concentration, and incubation was performed for 10 minutes. Then, phenylephrin was cumulatively added so that the concentration should become 1 nM, 10 nM, 100 nM, 1 μM and 10 μM.

SMILES strings stand for the structures.

Turning to `CN[C@H]1CCN(S(=O)(=O)c2cccc3cncc(C)c23)C1` [Example 8-3], in test [1], the “walk distance compared with the solvent repetitive administration group” value is recorded as “extended the walk distance” and the “Inventive compound repetitive administration group (average distance (m))” value is 224 m. In test [2], the inhibition in vivo at 3000 µM is no less than 20% and the inhibition in vivo at 1000 µM was no less than 20%. For the same molecule, the inhibition in vivo at 30 mg/kg in the test with TNF-α production is no less than 50%.

As for `N[C@H]1CCN(S(=O)(=O)c2cccc3cncc(Cl)c23)C1` [Example 19-1, (S)-3-Amino-1-(4-chloro-5-isoquinolinesulfonyl)pyrrolidine], the inhibition in vivo at 3000 µM in test [2] is no less than 20%. In addition, the inhibition in vivo at 30 mg/kg in the test with TNF-α production was no less than 50%.

What is called IC50 is the midpoint of a concentration-inhibition curve. Read a high IC50 as a need for much substance. For `CN[C@H]1CCN(S(=O)(=O)c2cccc3cncc(Cl)c23)C1` [Example 19-3, (S)-1-(4-Chloro-5-isoquinolinesulfonyl)-3-(methylamino)pyrrolidine], in test [1], the “walk distance compared with the solvent repetitive administration group” value is given as “extended the walk distance” and the “Inventive compound repetitive administration group (average distance (m))” value was found to be 285 m. For the same molecule, in test [3], half-maximal inhibition (IC50) required 300 nM. Besides, in test [2], the inhibition in vivo at 3000 µM was no less than 20% and the inhibition in vivo at 1000 µM was no less than 20%. The inhibition in vivo at 30 mg/kg in the test with TNF-α production is no less than 50%.

In the case of `CN[C@H]1CCN(S(=O)(=O)c2cccc3c(O)ncc(Cl)c23)C1` [Example 36-1, (S)-1-(1-Hydroxy-4-chloro-5-isoquinolinesulfonyl)-3-(methylamino)pyrrolidine], in test [1], the “walk distance compared with the solvent repetitive administration group” value was “extended the walk distance” and the “Inventive compound repetitive administration group (average distance (m))” value is reported as 298 m. This molecule also had an IC50 in test [3] of 100 nM. Besides, in test [2], the inhibition in vivo at 3000 µM fell in the range of 10 to 20%. Further, the inhibition in vivo at 30 mg/kg with TNF-α production was no less than 50%.

For the origin of these results see US7964613B2 (Asahi Kasei Pharma Corporation, priority 2007, dated 2011).
